From ChEMBL document CHEMBL4828709, “Discovery of 2,4-pyrimidinediamine derivatives as potent dual inhibitors of ALK and HDAC” (Eur J Med Chem, 2021)
pIC50: −log10 of the molar value. Values belong to the molecule of their own block, whether it stands above or below them.

Columns and labels:
A549 [1] = assay: Potency index, ratio of crizotinib IC50 to test compound IC50 for human A549 cells assessed as inhibition of cell proliferation measured after 72 hrs by CCK8 assay; type: functional
A549 [2] = assay: cells; type: functional, cell-based; details: Homo sapiens, A549, 72 h
Description: Antiproliferative activity against human A549 cells assessed as inhibition of cell proliferation measured after 72 hrs by CCK8 assay

MDA-MB-231 [3] = assay: Potency index, ratio of crizotinib IC50 to test compound IC50 for human MDA-MB-231 cells assessed as inhibition of cell proliferation measured after 72 hrs by CCK8 assay; type: functional
NCI-H2228 [4] = assay: Potency index, ratio of ceritinib IC50 to test compound IC50 for human NCI-H2228 cells harboring EML4/ALK […] assessed as inhibition of cell proliferation measured after 72 hrs by CCK8 assay; type: functional
NCI-H2228 [5] = assay: cells; type: functional, cell-based; details: Homo sapiens, NCI-H2228, 72 h
NCI-H2228 [6] = assay: Potency index, ratio of crizotinib IC50 to test compound IC50 for human NCI-H2228 cells harboring EML4/ALK […] assessed as inhibition of cell proliferation measured after 72 hrs by CCK8 assay; type: functional
Histone deacetylase 1 [7] = biological target: T1, Histone deacetylase 1 (Homo sapiens, UniProt Q13547); assay: biochemical
T1 sequence (Q13547 whole entry): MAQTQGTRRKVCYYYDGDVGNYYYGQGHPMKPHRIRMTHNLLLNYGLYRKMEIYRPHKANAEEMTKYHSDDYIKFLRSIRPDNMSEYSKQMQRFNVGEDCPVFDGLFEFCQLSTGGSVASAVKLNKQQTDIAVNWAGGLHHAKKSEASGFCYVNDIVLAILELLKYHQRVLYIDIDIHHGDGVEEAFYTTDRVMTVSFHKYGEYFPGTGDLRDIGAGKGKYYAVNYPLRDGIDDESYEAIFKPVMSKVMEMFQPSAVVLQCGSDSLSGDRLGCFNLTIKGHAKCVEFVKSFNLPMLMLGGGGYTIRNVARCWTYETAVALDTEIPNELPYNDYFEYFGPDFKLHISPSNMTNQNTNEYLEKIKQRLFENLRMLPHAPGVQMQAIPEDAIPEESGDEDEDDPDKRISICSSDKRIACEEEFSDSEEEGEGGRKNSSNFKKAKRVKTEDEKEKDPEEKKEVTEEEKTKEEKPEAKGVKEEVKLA
Description: Inhibition of recombinant human C-terminal His/FLAG-tagged HDAC1 (1 to 482 residues) expressed in Sf9 insect cells using Ac-peptide-AMC as substrate preincubated for 15 mins followed by addition of substrate and trypsin measured by flourescence assay

HepG2 [8] = assay: cells; type: functional, cell-based; details: Homo sapiens, HepG2, 72 h
Description: Antiproliferative activity against human HepG2 cells assessed as inhibition of cell proliferation measured after 72 hrs by CCK8 assay

Histone deacetylase 1 [9] = biological target: T1, Histone deacetylase 1; details: Sf9, dose 10.0 nM, time 15.0 min
Histone deacetylase 1 [10] = biological target: T1, Histone deacetylase 1; details: Sf9, dose 100.0 nM, time 15.0 min
cells = type: functional, cell-based; details: Homo sapiens, SKNBE2, 72 h
Description: Antiproliferative activity against human SKNBE2 cells harboring wild type ALK assessed as inhibition of cell proliferation measured after 72 hrs by CCK8 assay

HepG2 [11] = assay: Potency index, ratio of crizotinib IC50 to test compound IC50 for human HepG2 cells assessed as inhibition of cell proliferation measured after 72 hrs by CCK8 assay; type: functional
SH-SY5Y [12] = assay: Potency index, ratio of ceritinib IC50 to test compound IC50 for human SH-SY5Y cells harboring ALK F1174L mutant assessed as inhibition of cell proliferation measured after 72 hrs by CCK8 assay; type: functional
[13] = Potency index, ratio of ceritinib IC50 to test compound IC50 for human SKNBE2 cells harboring wild type ALK assessed as inhibition of cell proliferation measured after 72 hrs by CCK8 assay; type: functional
[14] = biological target: T2, ALK tyrosine kinase receptor (Homo sapiens, UniProt Q9UM73); assay: Inhibition of ALK (unknown origin) at 10 nM preincubated for 10 mins followed by addition of substrate and ATP for 25 mins by caliper EZ reader method; details: time 35.0 min
Target sequence in this assay (Q9UM73 19-1620 limits assumed): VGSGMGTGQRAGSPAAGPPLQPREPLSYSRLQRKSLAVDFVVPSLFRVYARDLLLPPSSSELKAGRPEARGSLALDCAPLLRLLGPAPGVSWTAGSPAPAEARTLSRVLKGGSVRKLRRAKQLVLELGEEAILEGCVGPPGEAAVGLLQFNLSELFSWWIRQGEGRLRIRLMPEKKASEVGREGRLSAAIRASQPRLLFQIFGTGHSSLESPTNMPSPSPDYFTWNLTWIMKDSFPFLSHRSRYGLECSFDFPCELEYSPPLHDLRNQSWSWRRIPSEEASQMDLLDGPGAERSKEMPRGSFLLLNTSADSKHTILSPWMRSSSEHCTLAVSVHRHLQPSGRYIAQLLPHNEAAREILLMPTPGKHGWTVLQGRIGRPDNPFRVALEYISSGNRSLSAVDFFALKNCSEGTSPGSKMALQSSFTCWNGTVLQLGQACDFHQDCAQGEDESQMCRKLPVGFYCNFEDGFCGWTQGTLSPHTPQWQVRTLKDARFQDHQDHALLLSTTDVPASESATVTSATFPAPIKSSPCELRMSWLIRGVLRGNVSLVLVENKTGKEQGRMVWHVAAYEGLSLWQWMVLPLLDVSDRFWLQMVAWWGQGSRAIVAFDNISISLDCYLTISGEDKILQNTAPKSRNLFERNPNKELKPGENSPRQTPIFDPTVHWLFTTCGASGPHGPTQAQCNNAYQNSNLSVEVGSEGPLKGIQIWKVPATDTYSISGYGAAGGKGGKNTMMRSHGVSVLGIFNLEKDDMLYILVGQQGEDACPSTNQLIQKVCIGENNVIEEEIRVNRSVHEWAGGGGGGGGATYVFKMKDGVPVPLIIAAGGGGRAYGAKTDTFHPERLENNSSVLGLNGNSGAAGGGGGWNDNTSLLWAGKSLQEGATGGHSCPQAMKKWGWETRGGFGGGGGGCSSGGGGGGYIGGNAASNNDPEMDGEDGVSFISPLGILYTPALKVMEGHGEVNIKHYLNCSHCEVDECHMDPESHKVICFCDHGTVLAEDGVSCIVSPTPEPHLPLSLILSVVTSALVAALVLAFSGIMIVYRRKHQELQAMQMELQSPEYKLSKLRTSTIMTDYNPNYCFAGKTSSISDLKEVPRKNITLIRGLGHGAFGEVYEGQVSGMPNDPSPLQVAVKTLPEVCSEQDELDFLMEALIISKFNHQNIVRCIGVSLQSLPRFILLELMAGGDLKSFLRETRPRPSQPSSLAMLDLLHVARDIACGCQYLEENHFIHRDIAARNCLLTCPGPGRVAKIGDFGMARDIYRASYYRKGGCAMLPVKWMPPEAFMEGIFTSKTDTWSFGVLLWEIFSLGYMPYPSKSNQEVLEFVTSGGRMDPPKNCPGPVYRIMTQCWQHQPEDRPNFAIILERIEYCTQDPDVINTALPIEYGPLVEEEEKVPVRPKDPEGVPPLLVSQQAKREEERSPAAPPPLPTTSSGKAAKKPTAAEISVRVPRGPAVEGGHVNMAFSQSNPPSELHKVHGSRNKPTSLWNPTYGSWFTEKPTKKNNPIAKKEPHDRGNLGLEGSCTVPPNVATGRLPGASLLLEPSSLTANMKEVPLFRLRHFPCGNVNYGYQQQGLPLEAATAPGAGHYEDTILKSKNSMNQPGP

Histone deacetylase 2 = Histone deacetylase 2 (Homo sapiens, UniProt Q92769)
Histone deacetylase 2, sequence (Q92769 whole entry): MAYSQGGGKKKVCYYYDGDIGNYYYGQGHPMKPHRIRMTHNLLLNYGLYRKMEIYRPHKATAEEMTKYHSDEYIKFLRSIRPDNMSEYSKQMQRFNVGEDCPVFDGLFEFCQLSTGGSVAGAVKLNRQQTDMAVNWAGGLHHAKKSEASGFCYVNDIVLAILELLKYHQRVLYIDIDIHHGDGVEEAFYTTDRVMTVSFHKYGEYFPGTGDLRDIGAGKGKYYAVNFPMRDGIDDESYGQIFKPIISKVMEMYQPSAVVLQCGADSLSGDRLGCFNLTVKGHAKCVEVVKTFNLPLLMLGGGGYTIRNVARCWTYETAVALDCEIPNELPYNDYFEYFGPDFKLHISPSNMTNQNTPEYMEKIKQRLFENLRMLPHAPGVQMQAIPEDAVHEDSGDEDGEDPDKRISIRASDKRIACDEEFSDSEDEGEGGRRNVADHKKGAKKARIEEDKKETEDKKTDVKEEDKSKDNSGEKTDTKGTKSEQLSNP
Description: Inhibition of HDAC2 (unknown origin)

[15] = biological target: ALK tyrosine kinase receptor (Homo sapiens, UniProt Q9UM73, L1196M)
ALK tyrosine kinase receptor (Homo sapiens, UniProt Q9UM73, L1196M), sequence (Q9UM73 19-1620 L1196M limits assumed): as the sequence (Q9UM73 19-1620 limits assumed) above, with L1178M counted along it

[16] = biological target: T3, Protein deacetylase HDAC6 (Homo sapiens, UniProt Q9UBN7)
T3 sequence (Q9UBN7 whole entry): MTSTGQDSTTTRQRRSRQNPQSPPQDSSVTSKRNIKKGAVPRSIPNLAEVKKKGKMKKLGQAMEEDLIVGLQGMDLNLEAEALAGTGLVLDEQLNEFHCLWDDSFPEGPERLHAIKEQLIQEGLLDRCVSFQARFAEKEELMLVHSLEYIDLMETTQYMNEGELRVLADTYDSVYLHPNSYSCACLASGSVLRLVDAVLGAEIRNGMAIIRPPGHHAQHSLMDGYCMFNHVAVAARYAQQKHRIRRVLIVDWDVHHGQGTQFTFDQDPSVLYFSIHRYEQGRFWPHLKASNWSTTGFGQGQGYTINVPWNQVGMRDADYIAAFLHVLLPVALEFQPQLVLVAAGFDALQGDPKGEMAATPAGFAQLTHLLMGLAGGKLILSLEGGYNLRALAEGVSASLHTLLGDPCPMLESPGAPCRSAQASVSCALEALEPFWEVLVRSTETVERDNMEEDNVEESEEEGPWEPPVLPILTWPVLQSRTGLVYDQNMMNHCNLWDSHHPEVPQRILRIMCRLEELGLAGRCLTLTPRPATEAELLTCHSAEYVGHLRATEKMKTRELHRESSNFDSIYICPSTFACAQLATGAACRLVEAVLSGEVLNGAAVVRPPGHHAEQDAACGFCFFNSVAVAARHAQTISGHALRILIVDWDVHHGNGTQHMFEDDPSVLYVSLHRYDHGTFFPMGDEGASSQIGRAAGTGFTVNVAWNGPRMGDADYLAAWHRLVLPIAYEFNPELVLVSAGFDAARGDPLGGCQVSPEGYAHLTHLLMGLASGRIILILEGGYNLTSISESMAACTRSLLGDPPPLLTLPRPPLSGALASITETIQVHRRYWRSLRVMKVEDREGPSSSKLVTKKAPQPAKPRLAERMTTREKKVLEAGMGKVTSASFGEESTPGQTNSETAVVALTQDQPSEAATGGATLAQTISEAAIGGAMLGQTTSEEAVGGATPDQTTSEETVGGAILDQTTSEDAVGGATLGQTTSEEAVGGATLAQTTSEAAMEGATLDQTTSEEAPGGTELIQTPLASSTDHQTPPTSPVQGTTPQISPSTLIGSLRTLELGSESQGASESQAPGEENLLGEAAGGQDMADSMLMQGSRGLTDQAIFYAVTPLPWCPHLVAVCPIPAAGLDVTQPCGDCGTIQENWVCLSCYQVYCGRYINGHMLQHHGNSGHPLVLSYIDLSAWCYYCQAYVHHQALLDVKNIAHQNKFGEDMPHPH
Description: Inhibition of HDAC6 (unknown origin)

[17] = biological target: T2, ALK tyrosine kinase receptor
Target sequence in this assay (Q9UM73 whole entry): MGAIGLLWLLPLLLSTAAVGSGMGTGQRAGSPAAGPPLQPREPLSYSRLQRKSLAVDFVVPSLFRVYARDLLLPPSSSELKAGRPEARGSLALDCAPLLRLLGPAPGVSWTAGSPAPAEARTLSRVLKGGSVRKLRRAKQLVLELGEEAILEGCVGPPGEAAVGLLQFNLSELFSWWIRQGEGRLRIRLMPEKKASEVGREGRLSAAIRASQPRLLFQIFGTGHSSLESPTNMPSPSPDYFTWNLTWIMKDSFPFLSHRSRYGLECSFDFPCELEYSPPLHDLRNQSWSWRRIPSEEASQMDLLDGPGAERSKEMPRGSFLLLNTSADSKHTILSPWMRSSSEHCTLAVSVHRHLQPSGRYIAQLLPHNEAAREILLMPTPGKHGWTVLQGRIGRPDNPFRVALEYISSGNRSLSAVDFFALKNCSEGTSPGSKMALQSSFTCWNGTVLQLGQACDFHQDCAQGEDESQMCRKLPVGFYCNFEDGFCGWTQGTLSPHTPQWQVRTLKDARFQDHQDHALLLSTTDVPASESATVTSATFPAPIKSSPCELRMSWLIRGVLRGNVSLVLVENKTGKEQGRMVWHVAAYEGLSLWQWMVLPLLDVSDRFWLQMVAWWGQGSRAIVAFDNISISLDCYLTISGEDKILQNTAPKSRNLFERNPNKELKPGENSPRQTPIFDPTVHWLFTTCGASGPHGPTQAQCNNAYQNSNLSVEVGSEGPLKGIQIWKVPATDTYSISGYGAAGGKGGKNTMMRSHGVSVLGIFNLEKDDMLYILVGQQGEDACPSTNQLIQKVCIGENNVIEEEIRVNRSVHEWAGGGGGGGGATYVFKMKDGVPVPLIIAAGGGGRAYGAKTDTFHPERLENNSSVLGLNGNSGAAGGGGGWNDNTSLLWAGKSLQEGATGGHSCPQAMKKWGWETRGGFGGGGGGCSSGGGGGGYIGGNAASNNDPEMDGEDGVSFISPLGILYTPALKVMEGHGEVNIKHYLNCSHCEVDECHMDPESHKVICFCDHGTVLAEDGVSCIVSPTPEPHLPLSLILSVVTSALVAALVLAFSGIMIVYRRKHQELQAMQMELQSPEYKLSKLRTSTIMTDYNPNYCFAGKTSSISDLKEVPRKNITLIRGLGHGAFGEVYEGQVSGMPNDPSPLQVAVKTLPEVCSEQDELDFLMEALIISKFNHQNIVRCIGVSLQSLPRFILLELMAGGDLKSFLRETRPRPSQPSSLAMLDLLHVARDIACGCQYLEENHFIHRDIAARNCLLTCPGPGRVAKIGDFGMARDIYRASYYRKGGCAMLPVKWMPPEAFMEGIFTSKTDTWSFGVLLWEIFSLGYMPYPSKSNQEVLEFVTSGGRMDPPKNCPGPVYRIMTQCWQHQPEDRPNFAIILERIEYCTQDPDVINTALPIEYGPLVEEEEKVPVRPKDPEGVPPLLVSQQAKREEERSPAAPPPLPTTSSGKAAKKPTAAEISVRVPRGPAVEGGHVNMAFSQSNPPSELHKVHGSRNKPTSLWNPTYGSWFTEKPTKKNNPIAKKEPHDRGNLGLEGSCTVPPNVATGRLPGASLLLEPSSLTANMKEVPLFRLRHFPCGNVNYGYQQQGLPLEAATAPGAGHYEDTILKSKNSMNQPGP
Description: Inhibition of ALK (unknown origin) preincubated for 10 mins followed by addition of substrate and ATP for 25 mins by caliper EZ reader method

HepG2 [18] = assay: Potency index, ratio of ceritinib IC50 to test compound IC50 for human HepG2 cells assessed as inhibition of cell proliferation measured after 72 hrs by CCK8 assay; type: functional
SH-SY5Y [19] = assay: Potency index, ratio of crizotinib IC50 to test compound IC50 for human SH-SY5Y cells harboring ALK F1174L mutant assessed as inhibition of cell proliferation measured after 72 hrs by CCK8 assay; type: functional
[20] = biological target: ALK tyrosine kinase receptor (Homo sapiens, UniProt Q9UM73, G1202R)
ALK tyrosine kinase receptor (Homo sapiens, UniProt Q9UM73, G1202R), sequence (Q9UM73 19-1620 G1202R limits assumed): as the sequence (Q9UM73 19-1620 limits assumed) above, with G1184R counted along it

MDA-MB-231 [21] = assay: cells; type: functional, cell-based; details: Homo sapiens, MDA-MB-231, 72 h
Description: Antiproliferative activity against human MDA-MB-231 cells assessed as inhibition of cell proliferation measured after 72 hrs by CCK8 assay

A549 [22] = assay: Potency index, ratio of ceritinib IC50 to test compound IC50 for human A549 cells assessed as inhibition of cell proliferation measured after 72 hrs by CCK8 assay; type: functional
[23] = Potency index, ratio of crizotinib IC50 to test compound IC50 for human SKNBE2 cells harboring wild type ALK assessed as inhibition of cell proliferation measured after 72 hrs by CCK8 assay; type: functional
MDA-MB-231 [24] = assay: Potency index, ratio of ceritinib IC50 to test compound IC50 for human MDA-MB-231 cells assessed as inhibition of cell proliferation measured after 72 hrs by CCK8 assay; type: functional
[25] = biological target: T2, ALK tyrosine kinase receptor; assay: Inhibition of ALK (unknown origin) at 100 nM preincubated for 10 mins followed by addition of substrate and ATP for 25 mins by caliper EZ reader method; details: time 35.0 min
Target sequence in this assay (Q9UM73 19-1620 limits assumed): as the sequence (Q9UM73 19-1620 limits assumed) above

SH-SY5Y [26] = assay: cells; type: functional, cell-based; details: Homo sapiens, 72 h
Description: Antiproliferative activity against human SH-SY5Y cells harboring ALK F1174L mutant assessed as inhibition of cell proliferation measured after 72 hrs by CCK8 assay

MDA-MB-231 [27] = assay: Induction of apoptosis in human MDA-MB-231 cells assessed as late apoptotic cells at 1 uM measured after 24 hrs by Annexin V-FITC/PI staining based flowcytometry ( Rvb = 5.28%); type: functional
MDA-MB-231 [28] = assay: Induction of apoptosis in human MDA-MB-231 cells assessed as early apoptotic cells at 1 uM measured after 24 hrs by Annexin V-FITC/PI staining based flowcytometry ( Rvb = […]%); type: functional
MDA-MB-231 [29] = assay: Induction of apoptosis in human MDA-MB-231 cells assessed as viable cells at 1 uM measured after 24 hrs by Annexin V-FITC/PI staining based flowcytometry (reference value: 93.14%); type: functional; details: read-out: Activity
SH-SY5Y [30] = assay: Induction of apoptosis in human SH-SY5Y cells assessed as late apoptotic cells at 1 uM measured after 24 hrs by Annexin V-FITC/PI staining based flowcytometry (reference value: 14.32%); type: functional
SH-SY5Y [31] = assay: Induction of apoptosis in human SH-SY5Y cells assessed as viable cells at 1 uM measured after 24 hrs by Annexin V-FITC/PI staining based flowcytometry (reference value: 77.05%); type: functional; details: read-out: Activity
MDA-MB-231 [32] = assay: Induction of apoptosis in human MDA-MB-231 cells assessed as necrotic cells at 1 uM measured after 24 hrs by Annexin V-FITC/PI staining based flowcytometry (reference value: 0.94%); type: functional
SH-SY5Y [33] = assay: Induction of apoptosis in human SH-SY5Y cells assessed as necrotic cells at 1 uM measured after 24 hrs by Annexin V-FITC/PI staining based flowcytometry (reference value: 7.81%); type: functional
SH-SY5Y [34] = assay: Induction of apoptosis in human SH-SY5Y cells assessed as early apoptotic cells at 1 uM measured after 24 hrs by Annexin V-FITC/PI staining based flowcytometry (reference value: 0.82%); type: functional

pIC50 (A549 [2]): 5.47
pIC50 (NCI-H2228 [5]): 6.74
pIC50 (Histone deacetylase 1 [7]): 7.92
pIC50 (HepG2 [8]): 6.04
inhibition (Histone deacetylase 1 [9]): 49%
inhibition (Histone deacetylase 1 [10]): 100%
pIC50 (cells): 6.66
inhibition [14]: 84.5%
pIC50 (Histone deacetylase 2): 7.82
pIC50 [15]: 8.62
pIC50 [16]: 8.17
pIC50 [17]: 8.37
pIC50 [20]: 9.00
pIC50 (MDA-MB-231 [21]): 6.41
inhibition [25]: 103%
pIC50 (SH-SY5Y [26]): 6.47
Compound: CC(C)S(=O)(=O)c1ccccc1Nc1nc(Nc2ccc(C(=O)NCCCCCCC(=O)NO)cc2)ncc1Cl
Ratio IC50 (A549 [1]): 3
Ratio IC50 (MDA-MB-231 [3]): 3
Ratio IC50 (NCI-H2228 [4]): 3
Ratio IC50 (NCI-H2228 [6]): 3
Ratio IC50 (HepG2 [11]): 3
Ratio IC50 (SH-SY5Y [12]): 3
Ratio IC50 [13]: 3
Ratio IC50 (HepG2 [18]): 3
Ratio IC50 (SH-SY5Y [19]): 3
Ratio IC50 (A549 [22]): 3
Ratio IC50 [23]: 3
Ratio IC50 (MDA-MB-231 [24]): 3

pIC50 (NCI-H2228 [5]): 5.70
pIC50 (HepG2 [8]): 5.39
pIC50 (cells): 5.58
pIC50 (MDA-MB-231 [21]): 5.74
pIC50 (SH-SY5Y [26]): 6.43
Compound: Cc1cc(Nc2ncc(Cl)c(Nc3ccccc3S(=O)(=O)C(C)C)n2)c(OC(C)C)cc1C1CCNCC1 [CERITINIB]
Activity (MDA-MB-231 [27]): 7.07%
Activity (MDA-MB-231 [28]): 1.17%
viability at 1 µM (MDA-MB-231 [29]): 90.2%
Activity (SH-SY5Y [30]): 20.4%
viability at 1 µM (SH-SY5Y [31]): 81.9%
Activity (MDA-MB-231 [32]): 1.55%
Activity (SH-SY5Y [33]): 11.77%
Activity (SH-SY5Y [34]): 2.07%
